Results taken from PubChem BioAssay (NCI).
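Interpolation was linear, between the two tested concentrations surrounding the appropriate level; five concentrations were tested over 48 hours in 96-well plates. Abbreviation: GI50, concentration required for 50% inhibition of growth. TGI is the concentration that stops growth completely.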

Key:
Experiment in all cases: NCI tumour cell line growth inhibition, 48 h
BT-549 breast = tested on: BT-549 breast
HT29 colon = tested on: HT29 colon
LOX IMVI melanoma = tested on: LOX IMVI melanoma
NCI-H23 lung = tested on: NCI-H23 lung
SK-MEL-28 melanoma = tested on: SK-MEL-28 melanoma
SK-MEL-5 melanoma = tested on: SK-MEL-5 melanoma
SK-OV-3 ovarian = tested on: SK-OV-3 ovarian
SN12C renal = tested on: SN12C renal
SNB-75 CNS = tested on: SNB-75 CNS
UO-31 renal = tested on: UO-31 renal
CCRF-CEM leukemia = tested on: CCRF-CEM leukemia

Compound | TGI (BT-549 breast) [µM] | TGI (HT29 colon) [µM] | TGI (LOX IMVI melanoma) [µM] | TGI (NCI-H23 lung) [µM] | TGI (SK-MEL-28 melanoma) [µM] | TGI (SK-MEL-5 melanoma) [µM] | TGI (SK-OV-3 ovarian) [µM] | TGI (SN12C renal) [µM] | TGI (SNB-75 CNS) [µM] | TGI (UO-31 renal) [µM] | TGI (CCRF-CEM leukemia) [µM] | GI50 (CCRF-CEM leukemia) [µM] | GI50 (HT29 colon) [µM] | GI50 (SK-MEL-5 melanoma) [µM] | GI50 (SK-OV-3 ovarian) [µM] | GI50 (SN12C renal) [µM] | GI50 (SNB-75 CNS) [µM] | GI50 (UO-31 renal) [µM]
COc1ccc2c(c1)C(=O)CC1c3cnccc3C(=O)N21 (stereo not given) | > 100 | > 100 | > 100 | > 100 | > 100 | > 100 | > 100 | > 100 | > 100 | 99.5 |  |  |  |  |  |  |  | 
C=CCC1(C#N)C(=S)NC2=C(C(=O)CC(C)(C)C2)C1c1ccccc1 (stereo not given) | > 100 | > 100 | > 100 | > 100 | > 100 | > 100 |  | > 100 | 74.8 | > 100 | > 100 |  |  |  |  |  |  | 
CNC(C)(C)Cc1ccc(Cl)cc1 |  | > 100 | > 100 | > 100 | > 100 | > 100 | > 100 | > 100 | > 100 |  | > 100 |  |  |  |  |  |  | 
CC(=O)O[C@H]1CC(C)(C)C(=C=C/C(C)=C/C=C/C=C/C=C(C)/C=C2C=C(/C=C/[C@@]34O[C@]3(C)C[C@@H](O)CC4(C)C)C(=O)O/2)[C@](C)(O)C1 | 8.16 | > 100 |  | 18.1 | > 100 | 28.9 |  | 35.8 | 28 | 30.7 | 10 |  |  |  |  |  |  | 
O=C(O)CC(Cc1ccccc1Cl)C(=O)O (stereo not given) | > 100 | > 100 | > 100 | > 100 | > 100 | > 100 | > 100 | > 100 |  | > 100 | > 100 |  |  |  |  |  |  | 
O=c1[nH]c(Nc2ccccc2)nc2c1ncn2CC(O)CSCCO (stereo not given) | > 100 | > 100 | > 100 | > 100 | > 100 | > 100 | > 100 | > 100 | > 100 |  | > 100 |  |  |  |  |  |  | 
[N-]=[N+]=Nc1c(Cc2ccccc2)c(Cl)nc2ccccc12 |  | > 100 | 38.5 | > 100 | > 100 | 30 | > 100 | 73.8 | 93.3 | > 100 | > 100 |  |  |  |  |  |  | 
COc1cc2c(c3c1c(=O)c1ccccc1n3C)C=CC1(CCCC1)O2 | 25.5 | 19.7 | 27.3 | 28.6 | 28 | 25.6 | 38.4 | 37.2 | 24.8 |  | 53.9 |  |  |  |  |  |  | 
COC(=O)C1=C(O)C(C(=O)OC)C2CC(=O)CC1C2(C)C (stereo not given) | > 100 | > 100 |  | > 100 | > 100 | > 100 | > 100 | > 100 | > 100 | > 100 | > 100 |  |  |  |  |  |  | 
COc1ccc(N2CC(=O)N(C(=O)COc3ccc(OCC(=O)N4C(=O)CN(c5ccc(OC)cc5)C4=S)cc3)C2=S)cc1 | > 100 | > 100 |  | > 100 | > 100 | > 100 | > 100 | > 100 | > 100 | > 100 |  |  |  |  |  |  |  | 
C=CCSC1=N/C(=C\c2ccc(Cl)cc2)C(=O)N1CC=C | 76.2 | > 100 | > 100 | > 100 | > 100 | 31 | > 100 | 95.1 |  | > 100 | 51.8 |  |  |  |  |  |  | 
CCN(CCCOc1ccccc1)CCN(CC)CCCOc1ccccc1 | 29.1 | 27.4 | 27.9 | 40.6 | 36.7 | 5.44 |  | 44.8 | 48.6 | 22.3 | > 100 |  |  |  |  |  |  | 
O=C(/C=C(/C=C/c1ccc2[nH]ccc2c1)OB(F)F)/C=C/c1ccc2[nH]ccc2c1 |  | > 100 |  |  |  | 13.3 | > 100 | 18.9 | 15.7 | 5.55 | > 100 | 0.423 | 1.47 | 2.98 | 3.43 | 2.6 | 2.72 | 1.35
Cc1ccc2c(c1)-c1nc(N)c(C#N)c(-c3ccc(Cl)cc3)c1CCS2(=O)=O | > 100 | 63.2 | > 100 | > 100 | > 100 | 40.2 |  | > 100 | > 100 | 86.2 | 72 |  |  |  |  |  |  | 
COc1cc2c(c(O)c1O)C(=O)C1CCC(=O)N1C2c1cccc2ccccc12 (stereo not given) | > 50 | > 50 |  | > 50 | > 50 |  | > 50 | > 50 | > 50 | > 50 | > 50 |  |  |  |  |  |  | 
Cc1ccc(S(=O)(=O)NC(=O)Nc2nnc(S(N)(=O)=O)s2)cc1 |  | > 100 | > 100 | > 100 |  | > 100 | > 100 |  | > 100 | > 100 | > 100 |  |  |  |  |  |  | 
c1ccc(/C(=N/Nc2nc3ccccc3s2)C2CCCCC2)nc1 | 35.1 | 16.1 | 54.3 | 21.8 | 25.8 | 18.9 | 18.7 | 22.7 |  | 15.4 | 15.4 |  |  |  |  |  |  | 
COC(=O)C1(NC(=O)C(CC(=O)OCc2ccccc2)NC(=O)OCc2ccccc2)CCCCCC1 (stereo not given) | 61.5 | 50.7 | 66 | > 100 | > 100 | 28.8 | 94.6 |  | > 100 | > 100 |  |  |  |  |  |  |  | 
C[C@@]1(O)C2CC3CC1(c1ccccc1)CC(/C3=N/O)/C2=N\O (stereo not given in full) |  | > 100 | > 100 | > 100 | > 100 | > 100 | > 100 | > 100 | > 100 | > 100 | > 100 |  |  |  |  |  |  | 
O=C(Nc1ccccc1F)c1cc2ccc(O)cc2oc1=Nc1cccc(F)c1 | 39.4 | > 100 | 22.9 | 5.36 | 38.7 | 18 | > 100 |  |  | 29.3 | 15.3 |  |  |  |  |  |  | 
CC(C)(C)c1ccccc1N1C(=O)c2ccc3c4c(ccc(c24)C1=O)N(c1ccccc1C(C)(C)C)C3=O | > 100 | > 100 |  | > 100 | > 100 | > 100 | > 100 | > 100 |  | > 100 | > 100 |  |  |  |  |  |  | 
